#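 A five-concentration, 48-hour dose response in 96-well plates underlies each endpoint, interpolated linearly between surrounding concentrations. The concentration for full growth arrest is given as TGI.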
# Tested on: SF-539 CNS
# Assay: NCI anticancer screen, dose series, 48 h
row,Compound,TGI [µM]
1,CC(C)=NNC1=NC(C)(C)P(=O)(NNc2ncccn2)S1 (stereo unspecified),> 100
2,C[n+]1c2ccccc2c2/c(=C\C#N)c3ccccc3n21,17.5
3,COc1cc(/C=N/NC(=O)c2c(Cl)c(Cl)c(Cl)c(Cl)c2-c2nc3ccccc3[nH]2)ccc1O,> 100

# Tested on: SK-MEL-2 melanoma
# Assay: NCI anticancer screen, dose series, 48 h
row,Compound,TGI [µM]
1,CC(C)=NNC1=NC(C)(C)P(=O)(NNc2ncccn2)S1 (stereo unspecified),> 100
2,NC12CC3C4CC5(N)CC3C(C1)C(C5)C4C2,> 100
3,C[n+]1c2ccccc2c2/c(=C\C#N)c3ccccc3n21,8.52
4,COc1cc(/C=N/NC(=O)c2c(Cl)c(Cl)c(Cl)c(Cl)c2-c2nc3ccccc3[nH]2)ccc1O,41.1

# Tested on: SK-MEL-28 melanoma
# Assay: NCI anticancer screen, dose series, 48 h
row,Compound,TGI [µM]
1,COc1ccc(N=NC(=O)NC(CC(C)C)C(=O)NC(CC(C)C)C(=O)O)cc1 (stereo unspecified),> 100
2,CC(C)=NNC1=NC(C)(C)P(=O)(NNc2ncccn2)S1 (stereo unspecified),> 100
3,NC12CC3C4CC5(N)CC3C(C1)C(C5)C4C2,> 100
4,C[n+]1c2ccccc2c2/c(=C\C#N)c3ccccc3n21,30.3
5,COc1cc(/C=N/NC(=O)c2c(Cl)c(Cl)c(Cl)c(Cl)c2-c2nc3ccccc3[nH]2)ccc1O,> 100

# Tested on: SK-MEL-5 melanoma
# Assay: NCI anticancer screen, dose series, 48 h
row,Compound,TGI [µM]
1,COc1ccc(N=NC(=O)NC(CC(C)C)C(=O)NC(CC(C)C)C(=O)O)cc1 (stereo unspecified),> 100
2,CC(C)=NNC1=NC(C)(C)P(=O)(NNc2ncccn2)S1 (stereo unspecified),> 100
3,NC12CC3C4CC5(N)CC3C(C1)C(C5)C4C2,> 100
4,C[n+]1c2ccccc2c2/c(=C\C#N)c3ccccc3n21,61.3
5,COc1cc(/C=N/NC(=O)c2c(Cl)c(Cl)c(Cl)c(Cl)c2-c2nc3ccccc3[nH]2)ccc1O,34.2

# Tested on: SK-OV-3 ovarian
# Assay: NCI anticancer screen, dose series, 48 h
row,Compound,TGI [µM]
1,CC(C)=NNC1=NC(C)(C)P(=O)(NNc2ncccn2)S1 (stereo unspecified),> 100
2,NC12CC3C4CC5(N)CC3C(C1)C(C5)C4C2,> 100
3,C[n+]1c2ccccc2c2/c(=C\C#N)c3ccccc3n21,16
4,COc1cc(/C=N/NC(=O)c2c(Cl)c(Cl)c(Cl)c(Cl)c2-c2nc3ccccc3[nH]2)ccc1O,> 100

# Tested on: SN12C renal
# Assay: NCI anticancer screen, dose series, 48 h
row,Compound,TGI [µM]
1,COc1ccc(N=NC(=O)NC(CC(C)C)C(=O)NC(CC(C)C)C(=O)O)cc1 (stereo unspecified),> 100
2,NC12CC3C4CC5(N)CC3C(C1)C(C5)C4C2,> 100
3,C[n+]1c2ccccc2c2/c(=C\C#N)c3ccccc3n21,38
4,COc1cc(/C=N/NC(=O)c2c(Cl)c(Cl)c(Cl)c(Cl)c2-c2nc3ccccc3[nH]2)ccc1O,> 100

# Tested on: SNB-19 CNS
# Assay: NCI anticancer screen, dose series, 48 h
row,Compound,TGI [µM]
1,COc1ccc(N=NC(=O)NC(CC(C)C)C(=O)NC(CC(C)C)C(=O)O)cc1 (stereo unspecified),> 100
2,CC(C)=NNC1=NC(C)(C)P(=O)(NNc2ncccn2)S1 (stereo unspecified),> 100
3,NC12CC3C4CC5(N)CC3C(C1)C(C5)C4C2,> 100
4,C[n+]1c2ccccc2c2/c(=C\C#N)c3ccccc3n21,> 100
5,COc1cc(/C=N/NC(=O)c2c(Cl)c(Cl)c(Cl)c(Cl)c2-c2nc3ccccc3[nH]2)ccc1O,> 100

# Tested on: SNB-75 CNS
# Assay: NCI anticancer screen, dose series, 48 h
row,Compound,TGI [µM]
1,COc1ccc(N=NC(=O)NC(CC(C)C)C(=O)NC(CC(C)C)C(=O)O)cc1 (stereo unspecified),> 100
2,C[n+]1c2ccccc2c2/c(=C\C#N)c3ccccc3n21,8.16
3,COc1cc(/C=N/NC(=O)c2c(Cl)c(Cl)c(Cl)c(Cl)c2-c2nc3ccccc3[nH]2)ccc1O,60.5

# Tested on: SW-620 colon
# Assay: NCI anticancer screen, dose series, 48 h
row,Compound,TGI [µM]
1,COc1ccc(N=NC(=O)NC(CC(C)C)C(=O)NC(CC(C)C)C(=O)O)cc1 (stereo unspecified),> 100
2,CC(C)=NNC1=NC(C)(C)P(=O)(NNc2ncccn2)S1 (stereo unspecified),> 100
3,NC12CC3C4CC5(N)CC3C(C1)C(C5)C4C2,> 100
4,C[n+]1c2ccccc2c2/c(=C\C#N)c3ccccc3n21,11.8
5,COc1cc(/C=N/NC(=O)c2c(Cl)c(Cl)c(Cl)c(Cl)c2-c2nc3ccccc3[nH]2)ccc1O,> 100

# Tested on: T-47D breast
# Assay: NCI anticancer screen, dose series, 48 h
row,Compound,TGI [µM]
1,COc1ccc(N=NC(=O)NC(CC(C)C)C(=O)NC(CC(C)C)C(=O)O)cc1 (stereo unspecified),> 100
2,CC(C)=NNC1=NC(C)(C)P(=O)(NNc2ncccn2)S1 (stereo unspecified),> 100
3,NC12CC3C4CC5(N)CC3C(C1)C(C5)C4C2,> 100
4,C[n+]1c2ccccc2c2/c(=C\C#N)c3ccccc3n21,58.5
5,COc1cc(/C=N/NC(=O)c2c(Cl)c(Cl)c(Cl)c(Cl)c2-c2nc3ccccc3[nH]2)ccc1O,15.9

# Tested on: TK-10 renal
# Assay: NCI anticancer screen, dose series, 48 h
row,Compound,TGI [µM]
1,COc1ccc(N=NC(=O)NC(CC(C)C)C(=O)NC(CC(C)C)C(=O)O)cc1 (stereo unspecified),> 100
2,CC(C)=NNC1=NC(C)(C)P(=O)(NNc2ncccn2)S1 (stereo unspecified),> 100
3,NC12CC3C4CC5(N)CC3C(C1)C(C5)C4C2,> 100
4,C[n+]1c2ccccc2c2/c(=C\C#N)c3ccccc3n21,8.46

# Tested on: U251 CNS
# Assay: NCI anticancer screen, dose series, 48 h
row,Compound,TGI [µM]
1,COc1ccc(N=NC(=O)NC(CC(C)C)C(=O)NC(CC(C)C)C(=O)O)cc1 (stereo unspecified),> 100
2,CC(C)=NNC1=NC(C)(C)P(=O)(NNc2ncccn2)S1 (stereo unspecified),> 100
3,NC12CC3C4CC5(N)CC3C(C1)C(C5)C4C2,> 100
4,C[n+]1c2ccccc2c2/c(=C\C#N)c3ccccc3n21,13.9

# Tested on: UACC-257 melanoma
# Assay: NCI anticancer screen, dose series, 48 h
row,Compound,TGI [µM]
1,COc1ccc(N=NC(=O)NC(CC(C)C)C(=O)NC(CC(C)C)C(=O)O)cc1 (stereo unspecified),> 100
2,CC(C)=NNC1=NC(C)(C)P(=O)(NNc2ncccn2)S1 (stereo unspecified),> 100
3,NC12CC3C4CC5(N)CC3C(C1)C(C5)C4C2,> 100
4,C[n+]1c2ccccc2c2/c(=C\C#N)c3ccccc3n21,20.8
5,COc1cc(/C=N/NC(=O)c2c(Cl)c(Cl)c(Cl)c(Cl)c2-c2nc3ccccc3[nH]2)ccc1O,87.6

# Tested on: UACC-62 melanoma
# Assay: NCI anticancer screen, dose series, 48 h
row,Compound,TGI [µM]
1,COc1ccc(N=NC(=O)NC(CC(C)C)C(=O)NC(CC(C)C)C(=O)O)cc1 (stereo unspecified),> 100
2,CC(C)=NNC1=NC(C)(C)P(=O)(NNc2ncccn2)S1 (stereo unspecified),> 100
3,NC12CC3C4CC5(N)CC3C(C1)C(C5)C4C2,> 100
4,C[n+]1c2ccccc2c2/c(=C\C#N)c3ccccc3n21,54.2
5,COc1cc(/C=N/NC(=O)c2c(Cl)c(Cl)c(Cl)c(Cl)c2-c2nc3ccccc3[nH]2)ccc1O,32.4

# Tested on: UO-31 renal
# Assay: NCI anticancer screen, dose series, 48 h
row,Compound,TGI [µM]
1,COc1ccc(N=NC(=O)NC(CC(C)C)C(=O)NC(CC(C)C)C(=O)O)cc1 (stereo unspecified),> 100
2,CC(C)=NNC1=NC(C)(C)P(=O)(NNc2ncccn2)S1 (stereo unspecified),> 100
3,NC12CC3C4CC5(N)CC3C(C1)C(C5)C4C2,> 100
4,C[n+]1c2ccccc2c2/c(=C\C#N)c3ccccc3n21,26.7
5,COc1cc(/C=N/NC(=O)c2c(Cl)c(Cl)c(Cl)c(Cl)c2-c2nc3ccccc3[nH]2)ccc1O,> 100

# — PubChem BioAssay (NCI)
